Reference: paper PMC9188586, “Design, synthesis and evaluation of novel tetrahydropyridothienopyrimidin-ureas as cytotoxic and anti-angiogenic agents” (Scientific Reports, 2022)

Assays:
MCF-7 (breast cancer) = experiment: MTT antiproliferative assay, MCF-7; type: cell-based
Protocol: (§1) Two series of new tetrahydropyridothienopyrimidines were evaluated for their cytotoxicity against a panel of cell lines, including MCF-7 (breast cancer), SW480 (colon cancer), PC-3 (prostate cancer), HEPG-2 (liver cancer) and HUVEC (human umbilical vein endothelial cell) using 3-(4,5-dimethyl- thiazol-2-yl)-2,5-diphenyltetrazolium bromide (MTT) assay. Sorafenib was used as a positive control. The cytotoxicity is expressed as the concentration that inhibits 50% of cell viability (IC50). […] The preliminary SAR is evaluated on the basis of cytotoxicity results of phenyl derivatives (11a–k) and pyridine derivatives (11l–11y).The mesomeric effect didn’t improve the cytotoxicity of compound 11d in the first series.
(§2) Cytotoxicity of the compounds was measured by detecting the ability of cells in transforming MTT into a purple formazan dye. The different cell lines were provided by the National Cell Bank of Iran (Pastor Institute, Tehran, Iran). The required materials and reagents were purchased from Sigma. After the cell culture in RPMI-1640 medium and DMEM containing 10% FBS (Gibco, Milano, Italy), the suspension of MCF-7 (7000) and other cells (5000) were poured into 96 well plates and incubated in a humidified incubator containing 5% CO2 at 37 °C for 24 h. Subsequently, a solution of the compounds in DMSO was added to these plates and incubated for 48 h. After incubation, the solution of 5% 3-(4,5-Dimethyl-2-thiazolyl)-2,5-diphenyl-2H-tetrazolium bromide (MTT) was added to all the wells and incubation was continued for another 4 h. The record of color intensity of the formazan solution was at 570 nm by Bio-Rad microplate reader (Model 680) which reflects the cell growth condition.

PC-3 (prostate cancer) = experiment: MTT antiproliferative assay, PC-3; type: cell-based; conditions: 48 h incubation
Protocol: as §1, §2

SW480 (colon cancer) = experiment: MTT antiproliferative assay, SW480; type: cell-based
Protocol: as §1, §2

HEPG-2 (liver cancer) = experiment: MTT antiproliferative assay, HEPG-2; type: cell-based
Protocol: as §1, §2

[1] = system: HUVEC (human umbilical vein endothelial cell); experiment: MTT antiproliferative assay, HUVEC; type: cell-based; conditions: for IC50: MTT assay, 48 h incubation
Protocol: as §1, §2

[2] = Homo sapiens, MCF7, 48 h incubation
[3] = Homo sapiens, SW480, 48 h incubation
[4] = Homo sapiens, HepG2, 48 h incubation

Row | Compound | IC50 (MCF-7 (breast cancer); [2]) [µM] | IC50 (PC-3 (prostate cancer)) [µM] | IC50 (SW480 (colon cancer); [3]) [µM] | IC50 (HEPG-2 (liver cancer); [4]) [µM] | IC50 ([1]; Homo sapiens, HUVEC) [µM] | melting point [°C] | IC50 (MCF-7 (breast cancer); 48 h incubation) [µM] | IC50 (SW480 (colon cancer); 48 h incubation) [µM] | IC50 (HEPG-2 (liver cancer); 48 h incubation) [µM] | IC50 [1] [µM] | increase of cytotoxicity against HUVEC on moving chlorine to para position ([1]; 11t vs 11u) [folds]
1 | O=C(Nc1ccccc1)Nc1nnc(Sc2ncnc3sc4c(c23)CCN(Cc2ccccc2)C4)s1 [Compound 11a, 1-(5-((7-benzyl-5,6,7,8-tetrahydropyrido[4',3':4,5]thieno[2,3-d]pyrimidin-4-yl)thio)-1,3,4-thiadiazol-2-yl)-3-phenylurea] | 23.34 ± 0.18 | 34.4 ± 1.64 | 24.5 ± 0.72 | 7.34 ± 0.01 | 19.06 ± 0.12 | 230 to 232 |  |  |  |  | 
2 | Cc1ccc(NC(=O)Nc2nnc(Sc3ncnc4sc5c(c34)CCN(Cc3ccccc3)C5)s2)cc1 [Compound 11c, 1-(5-((7-benzyl-5,6,7,8-tetrahydropyrido[4',3':4,5]thieno[2,3-d]pyrimidin-4-yl)thio)-1,3,4-thiadiazol-2-yl)-3-(p-tolyl)urea] | 42.87 ± 0.32 | 32.21 ± 0.3 | 70.2 ± 2.71 | 24.6 ± 0.39 | 26.12 ± 0.15 |  |  |  |  |  | 
3 | COc1ccc(NC(=O)Nc2nnc(Sc3ncnc4sc5c(c34)CCN(Cc3ccccc3)C5)s2)cc1 [Compound 11d, 1-(5-((7-benzyl-5,6,7,8-tetrahydropyrido[4',3':4,5]thieno[2,3-d]pyrimidin-4-yl)thio)-1,3,4-thiadiazol-2-yl)-3-(4-methoxyphenyl)urea] | 51.92 ± 0.47 | 44 ± 1.52 | 45.1 ± 1.7 | 43.92 ± 0.16 | 44.15 ± 0.22 | 280 to 282 |  |  |  |  | 
4 | O=C(Nc1cccc(F)c1)Nc1nnc(Sc2ncnc3sc4c(c23)CCN(Cc2ccccc2)C4)s1 [Compound 11e, 1-(5-((7-benzyl-5,6,7,8-tetrahydropyrido[4',3':4,5]thieno[2,3-d]pyrimidin-4-yl)thio)-1,3,4-thiadiazol-2-yl)-3-(3-fluorophenyl)urea] | 13 ± 0.18 | 42.8 ± 1.82 | 65.6 ± 1.74 | 9.84 ± 0.06 | 27.48 ± 0.07 | 144 to 146 |  |  |  |  | 
5 | O=C(Nc1ccc(F)cc1)Nc1nnc(Sc2ncnc3sc4c(c23)CCN(Cc2ccccc2)C4)s1 [Compound 11f, 1-(5-((7-benzyl-5,6,7,8-tetrahydropyrido[4',3':4,5]thieno[2,3-d]pyrimidin-4-yl)thio)-1,3,4-thiadiazol-2-yl)-3-(4-fluorophenyl)urea] | 45.04 ± 0.41 | 41.4 ± 0.46 | 61.3 ± 2.02 | 30.7 ± 0.44 | 47.98 ± 0.27 | 166 to 168 |  |  |  |  | 
6 | O=C(Nc1ccc(Cl)cc1)Nc1nnc(Sc2ncnc3sc4c(c23)CCN(Cc2ccccc2)C4)s1 [Compound 11g, 1-(5-((7-benzyl-5,6,7,8-tetrahydropyrido[4',3':4,5]thieno[2,3-d]pyrimidin-4-yl)thio)-1,3,4-thiadiazol-2-yl)-3-(4-chlorophenyl)urea] | 62.4 ± 2.94 | 41.6 ± 1.1 | 56.5 ± 1.28 | 46.96 ± 0.35 | 27.29 ± 0.19 |  |  |  |  |  | 
7 | Cc1ccc(NC(=O)Nc2nnc(Sc3ncnc4sc5c(c34)CCN(Cc3ccccc3)C5)s2)cc1Cl [Compound 11i, 1-(5-((7-benzyl-5,6,7,8-tetrahydropyrido[4',3':4,5]thieno[2,3-d]pyrimidin-4-yl)thio)-1,3,4-thiadiazol-2-yl)-3-(3-chloro-4-methylphenyl)urea] | 50.8 ± 0.54 | 41.8 ± 1.22 | 69.6 ± 1.88 | 3.33 ± 0.07 | 24.63 ± 0.22 |  |  |  |  |  | 
8 | O=C(Nc1cccc(C(F)(F)F)c1)Nc1nnc(Sc2ncnc3sc4c(c23)CCN(Cc2ccccc2)C4)s1 [Compound 11j, 1-(5-((7-benzyl-5,6,7,8-tetrahydropyrido[4',3':4,5]thieno[2,3-d]pyrimidin-4-yl)thio)-1,3,4-thiadiazol-2-yl)-3-(3-(trifluoromethyl)phenyl)urea] | 68.94 ± 0.63 | 73.8 ± 2.92 | 46.8 ± 1.13 | 63 ± 0.64 | 67.1 ± 1.85 | 181 to 183 |  |  |  |  | 
9 | O=C(Nc1ccc(Cl)c(C(F)(F)F)c1)Nc1nnc(Sc2ncnc3sc4c(c23)CCN(Cc2ccccc2)C4)s1 [Compound 11k, 1-(5-((7-benzyl-5,6,7,8-tetrahydropyrido[4',3':4,5]thieno[2,3-d]pyrimidin-4-yl)thio)-1,3,4-thiadiazol-2-yl)-3-(4-chloro-3-(trifluoromethyl)phenyl)urea] | 24.66 ± 0.24 | 23.15 ± 0.21 | 63.5 ± 1.37 | 28.46 ± 0.25 | 37.56 ± 0.31 |  |  |  |  |  | 
10 | COc1cccc(NC(=O)Nc2nnc(Sc3ncnc4sc5c(c34)CCN(Cc3ccncc3)C5)s2)c1 [Compound 11o, 1-(3-methoxyphenyl)-3-(5-((7-(pyridin-4-ylmethyl)-5,6,7,8-tetrahydropyrido[4',3':4,5]thieno[2,3-d]pyrimidin-4-yl)thio)-1,3,4-thiadiazol-2-yl)urea] | 14.63 ± 0.07 | 33.6 ± 1.41 | 65.8 ± 0.28 | 69.32 ± 0.52 | 20.6 ± 0.5 | 191 to 193 |  |  |  |  | 
11 | COc1ccc(NC(=O)Nc2nnc(Sc3ncnc4sc5c(c34)CCN(Cc3ccncc3)C5)s2)cc1 [Compound 11p, (4-Methoxyphenyl)-3-(5-((7-(pyridin-4-ylmethyl)-5,6,7,8-tetrahydropyrido[4',3':4,5]thieno[2,3-d]pyrimidin-4-yl)thio)-1,3,4-thiadiazol-2-yl)urea] |  | 43.5 ± 1.62 |  |  |  |  | 3.72 ± 0.55 | 29.4 ± 1.01 | 67.4 ± 0.33 | 2.86 ± 0.05 | 
12 | O=C(Nc1cccc(F)c1)Nc1nnc(Sc2ncnc3sc4c(c23)CCN(Cc2ccncc2)C4)s1 [Compound 11q, 1-(3-fluorophenyl)-3-(5-((7-(pyridin-4-ylmethyl)-5,6,7,8-tetrahydropyrido[4',3':4,5]thieno[2,3-d]pyrimidin-4-yl)thio)-1,3,4-thiadiazol-2-yl)urea] | 9.17 ± 0.04 | 4.5 ± 0.03 | 21.8 ± 0.72 | 74.3 ± 2.12 | 10.13 ± 0.05 | 243 to 246 |  |  |  |  | 
13 | O=C(Nc1ccc(F)cc1)Nc1nnc(Sc2ncnc3sc4c(c23)CCN(Cc2ccncc2)C4)s1 [Compound 11r, 1-(4-fluorophenyl)-3-(5-((7-(pyridin-4-ylmethyl)-5,6,7,8-tetrahydropyrido[4',3':4,5]thieno[2,3-d]pyrimidin-4-yl)thio)-1,3,4-thiadiazol-2-yl)urea] | 5.69 ± 0.03 | 18.98 ± 0.11 | 66.3 ± 1.24 | 67.5 ± 1.38 | 48.2 ± 0.62 |  |  |  |  |  | 
14 | O=C(Nc1nnc(Sc2ncnc3sc4c(c23)CCN(Cc2ccncc2)C4)s1)Nc1ccccc1Cl [Compound 11s, 1-(2-chlorophenyl)-3-(5-((7-(pyridin-4-ylmethyl)-5,6,7,8-tetrahydropyrido[4',3':4,5]thieno[2,3-d]pyrimidin-4-yl)thio)-1,3,4-thiadiazol-2-yl)urea] | 4.69 ± 0.09 | 8.94 ± 0.03 | 30.5 ± 0.12 | 26.26 ± 0.24 | 6.87 ± 0.03 | 229 to 231 |  |  |  |  | 
15 | O=C(Nc1cccc(Cl)c1)Nc1nnc(Sc2ncnc3sc4c(c23)CCN(Cc2ccncc2)C4)s1 [Compound 11t, 1-(3-chlorophenyl)-3-(5-((7-(pyridin-4-ylmethyl)-5,6,7,8-tetrahydropyrido[4',3':4,5]thieno[2,3-d]pyrimidin-4-yl)thio)-1,3,4-thiadiazol-2-yl)urea] | 12.68 ± 0.05 | 3.02 ± 1.12 | 14.6 ± 0.32 | 85 ± 3.4 | 67 ± 2.02 |  |  |  |  |  | 
16 | O=C(Nc1ccc(Cl)cc1)Nc1nnc(Sc2ncnc3sc4c(c23)CCN(Cc2ccncc2)C4)s1 [Compound 11u, 1-(4-chlorophenyl)-3-(5-((7-(pyridin-4-ylmethyl)-5,6,7,8-tetrahydropyrido[4',3':4,5]thieno[2,3-d]pyrimidin-4-yl)thio)-1,3,4-thiadiazol-2-yl)urea] | 8.1 ± 0.02 | 4.96 ± 0.18 | 60.7 ± 1.13 | 27.8 ± 1.84 | 2.08 ± 0.01 | 188 to 190 |  |  |  |  | ~30
17 | O=C(Nc1ccc(Cl)c(Cl)c1)Nc1nnc(Sc2ncnc3sc4c(c23)CCN(Cc2ccncc2)C4)s1 [Compound 11v, 1-(3,4-dichlorophenyl)-3-(5-((7-(pyridin-4-ylmethyl)-5,6,7,8-tetrahydropyrido[4',3':4,5]thieno[2,3-d]pyrimidin-4-yl)thio)-1,3,4-thiadiazol-2-yl)urea] | 10.37 ± 0.03 | 55.3 ± 1.82 | 67.7 ± 1.55 | 26.4 ± 0.9 | 68.4 ± 1.44 |  |  |  |  |  | 
18 | Cc1ccc(NC(=O)Nc2nnc(Sc3ncnc4sc5c(c34)CCN(Cc3ccncc3)C5)s2)cc1Cl [Compound 11w, 1-(3-chloro-4-methylphenyl)-3-(5-((7-(pyridin-4-ylmethyl)-5,6,7,8-tetrahydropyrido[4',3':4,5]thieno[2,3-d]pyrimidin-4-yl)thio)-1,3,4-thiadiazol-2-yl)urea] | 6.8 ± 0.05 | 9.42 ± 0.63 | 71.9 ± 1.1 | 38.5 ± 0.42 | 6.23 ± 0.03 | 157 to 159 |  |  |  |  | 
